The record followed here is BindingDB's records for doi:10.1016/s0960-894x(00)00660-0 (Clinical Research Institute of Montreal, 2001).

SMILES strings stand for the structures. Peptide text beside a SMILES is read from it. * marks the point of attachment. X1 = Cc1cc(O)cc(C)c1C[C@H](C)C(=O)*

A short description of experiment [1]: Tested for binding affinity towards Opioid receptor delta 1 in rat and guinea pig brain membrane binding assays.
A short description of experiment [2]: Tested for binding affinity towards Opioid receptor mu 1 in rat and guinea pig brain membrane binding assays.

For `Cc1cc(O)cc(C)c1C[C@H](C)C(=O)N[C@@H](C)C(=O)NCC(=O)N[C@@H](Cc1ccccc1)C(=O)N[C@@H](CC(C)C)C(N)=O` [(S)-2-[(S)-2-(2-{(S)-2-[(S)-3-(4-Hydroxy-2,6-dimethyl-phenyl)-2-methyl-propionylamino]-propionylamino}-acetylamino)-3-phenyl-propionylamino]-4-methyl-pentanoic acid amide] (X1-AGFL-NH2), the results for the Ki in experiment [1] and in experiment [2] were 0.012 µM and 0.192 µM, respectively.
